Measurements from patent publication US8722849B2, “Polypeptides” (Novo Nordisk A/S, priority 2011, dated 2014).
Values after ≈ are worked out from the molar mass of the structure shown. Where two headings read alike, the source gives them in different places. Starred links: 1 amine or outer side, 2 acyl side, 3 side chain; linkers in the order of their positions; H or OH if unused. Positions of bridges follow the written chain, without caps; N, C: chain ends. Residues, ends and D or L forms follow the SMILES beside them. *: point of attachment. C20 diacid = O=C(O)CCCCCCCCCCCCCCCCCCC(=O)*; γGlu = O=C(O)[C@H](CCC(=O)[*:2])N[*:1]

What was measured:
[1] = target: T1, human calcitonin receptor (Homo sapiens, UniProt P30988); assay: Assay (II)a functional CRE-luciferase assay, human calcitonin receptor; type: cell-based
T1 construct: expressed in transfected cells; host or cells: BHK570
T1 sequence (P30988 25-474): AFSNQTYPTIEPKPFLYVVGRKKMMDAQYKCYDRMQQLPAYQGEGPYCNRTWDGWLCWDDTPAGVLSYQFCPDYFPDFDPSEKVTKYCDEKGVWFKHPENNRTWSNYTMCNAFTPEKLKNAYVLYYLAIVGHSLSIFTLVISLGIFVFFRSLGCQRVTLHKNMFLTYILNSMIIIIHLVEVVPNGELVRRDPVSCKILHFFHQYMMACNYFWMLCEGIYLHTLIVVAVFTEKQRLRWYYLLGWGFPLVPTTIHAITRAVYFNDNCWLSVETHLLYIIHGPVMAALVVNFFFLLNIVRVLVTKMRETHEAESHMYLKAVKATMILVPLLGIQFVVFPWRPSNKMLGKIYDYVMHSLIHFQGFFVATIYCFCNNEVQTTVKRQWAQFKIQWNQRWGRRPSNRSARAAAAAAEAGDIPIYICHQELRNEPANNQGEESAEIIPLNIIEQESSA

[2] = Assay (III) ThT fibrillation assay for physical stability; type: physicochemical
Procedure, shortened: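 Freshly prepared formulations, pH-adjusted, with 1 μM ThT; four or eight replicates incubated at 37 °C under 960 rpm orbital shaking. Fluorescence (ex 444/em 485 nm) read every 20 min; […]. Peptide concentration measured by RP-HPLC before and after the run.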

[3] = target: T2, human amylin receptor (amylin 3(a) receptor: human calcitonin receptor + RAMP-3) (Homo sapiens, UniProt O60896+P30988); assay: Assay (II)a functional CRE-luciferase assay, human amylin receptor; type: cell-based
T2 construct: expressed in transfected cells; host or cells: BHK570
T2 sequence (P30988 25-474): T1 sequence (P30988 25-474)
T2 sequence (O60896 24-148 partner): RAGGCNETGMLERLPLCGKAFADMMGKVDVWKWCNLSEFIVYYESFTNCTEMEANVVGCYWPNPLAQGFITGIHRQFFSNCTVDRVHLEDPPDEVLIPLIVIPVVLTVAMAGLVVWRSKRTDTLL

[4] = Assay (IV) determination of solubility; type: physicochemical
Procedure, shortened: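 Polypeptide in water (~500 nmol/ml stock) was mixed 1:1 with 100 mM buffers from pH 3.0 to 8.0 (glycylglycine pH 3.0–5.0; bistrispropane pH 6.0–8.0). After 18 hours at room temperature, samples were centrifuged and the polypeptide remaining in solution was quantified by HPLC.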

[5] = Table 7, human calcitonin (CTa) receptor
[6] = bistrispropane buffer, pH 6, pH 6.0, read-out: Solubility pH 6.0
[7] = bistrispropane buffer, pH 6.5, pH 6.5, read-out: Solubility pH 6.5
[8] = bistrispropane buffer, pH 7, pH 7.0, read-out: Solubility pH 7.0
[9] = bistrispropane buffer, pH 7.5, pH 7.5, read-out: Solubility pH 7.5
[10] = bistrispropane buffer, pH 8, pH 8.0, read-out: Solubility pH 8.0
[11] = glycylglycine buffer, pH 3, pH 3.0, read-out: Solubility pH 3.0
[12] = glycylglycine buffer, pH 4, pH 4.0, read-out: Solubility pH 4.0
[13] = glycylglycine buffer, pH 5, pH 5.0, read-out: Solubility pH 5.0
[14] = Table 2, BHK amylin 3(a)-receptor/CRE-luc cells
[15] = bistrispropane buffer, pH 7, pH 7.0, 18 hours at room temperature, Table 3, read-out: Solubility pH 7.0
[16] = bistrispropane buffer, pH 7, pH 7.0, Table 8, read-out: Solubility pH 7.0
[17] = bistrispropane buffer, pH 7, pH 7.0, Table 9, read-out: Solubility pH 7.0
[18] = bistrispropane buffer, pH 7.5, pH 7.5, Table 9, read-out: Solubility pH 7.5
[19] = glycylglycine buffer, pH 4, pH 4.0, 18 hours at room temperature, Table 2, read-out: Solubility pH 4.0

EC50 [1, 5] [pM]	ThT pH 4.0 lag time (h) ([2]; ThT fibrillation assay)	solubility at 18 h [4, 6] [µM]	solubility at 18 h [4, 7] [µM]	solubility at 18 h [4, 8] [µM]	solubility at 18 h [4, 9] [µM]	solubility at 18 h [4, 10] [µM]	solubility at 18 h [4, 11] [µM]	solubility at 18 h [4, 12] [µM]	solubility at 18 h [4, 13] [µM]	ThT pH 4.0 lag time ([2]; Table 8) [h]	ThT pH 4.0 lag time ([2]; Table 9) [h]	ThT pH 4.0 lag time ([2]; ThT fibrillation assay) [h]	EC50 [3, 14] [pM]	solubility at 18 h [4, 15] [µM]	solubility at 18 h [4, 16] [µM]	solubility at 18 h [4, 17] [µM]	solubility at 18 h [4, 18] [µM]	solubility at 18 h [4, 19] [µM]	Molecule	also measured
432	0	6	4	1	25	26	> 200	84	52	–	–	–	–	–	–	–	–	–	{C20 diacid-γGlu}-SSGSSGCNTATCATQRLAEFLHHSSNNFGPILPPTNVGSNTY-NH2 (disulfide 7-12 (inferred)) [Example 39, N-alpha-[(S)-4-Carboxy-4-(19-carboxynonadecanoylamino)butyryl]-Ser-Ser-Gly-Ser-Ser-[Gly1,Glu14,His17]-pramlintide]	EC50 ([3]; Table 6, human amylin receptor): 253 pM
–	>45	> 200	> 200	> 200	> 200	> 200	> 200	> 200	> 200	>45	>45	>45	411	> 200	> 200	> 200	> 200	> 200	CC[C@H](C)[C@H](NC(=O)[C@@H]1CCCN1C(=O)CNC(=O)[C@H](Cc1ccccc1)NC(=O)[C@H](CC(N)=O)NC(=O)[C@H](CCC(N)=O)NC(=O)[C@H](CO)NC(=O)[C@H](CO)NC(=O)[C@H](Cc1c[nH]cn1)NC(=O)[C@H](CCCNC(=N)N)NC(=O)[C@H](CC(C)C)NC(=O)[C@H](Cc1ccccc1)NC(=O)[C@H](CCC(=O)O)NC(=O)[C@H](C)NC(=O)[C@H](CC(C)C)NC(=O)[C@H](CCCNC(=N)N)NC(=O)[C@H](CCC(N)=O)NC(=O)[C@@H](NC(=O)[C@H](C)NC(=O)[C@@H]1CSSC[C@H](NC(=O)[C@H](CCC(=O)O)NC(=O)[C@H](CCCNC(=N)N)NC(=O)[C@H](CCC(=O)O)NC(=O)CC[C@H](NC(=O)CCCCCCCCCCCCCCCCCCC(=O)O)C(=O)O)C(=O)N[C@@H](CC(N)=O)C(=O)N[C@@H]([C@@H](C)O)C(=O)N[C@@H](C)C(=O)N[C@@H]([C@@H](C)O)C(=O)N1)[C@@H](C)O)C(=O)N[C@@H](CC(C)C)C(=O)N1CCC[C@H]1C(=O)N1CCC[C@H]1C(=O)N[C@H](C(=O)N[C@@H](CC(N)=O)C(=O)N[C@H](C(=O)NCC(=O)N[C@@H](CO)C(=O)N[C@@H](CCC(N)=O)C(=O)N[C@H](C(=O)N1CCC[C@H]1C(N)=O)[C@@H](C)O)C(C)C)[C@@H](C)O [Example 162, N-alpha-[(S)-4-Carboxy-4-(19-carboxynonadecanoylamino)butyryl]-Glu-Arg-[Glu1,Glu14,Arg17,Gln21,Gln35,Pro37]-pramlintide] ({C20 diacid-γGlu}-ERECNTATCATQRLAEFLRHSSQNFGPILPPTNVGSQTP-NH2; disulfide 4-9)	EC50 ([1]; Table 11, read-out: CTa receptor human EC50): 2200 pM
160	26	> 200	152 (≈ 670 µg/mL)	> 200	> 200	> 200	> 200	> 200	> 200	26	–	26	208	> 200	> 200	–	–	> 200	CC[C@H](C)[C@H](NC(=O)[C@@H]1CCCN1C(=O)CNC(=O)[C@H](Cc1ccccc1)NC(=O)[C@H](CC(N)=O)NC(=O)[C@H](CC(N)=O)NC(=O)[C@H](CO)NC(=O)[C@H](CO)NC(=O)[C@H](Cc1c[nH]cn1)NC(=O)[C@H](Cc1c[nH]cn1)NC(=O)[C@H](CC(C)C)NC(=O)[C@H](Cc1ccccc1)NC(=O)[C@H](CCC(=O)O)NC(=O)[C@H](C)NC(=O)[C@H](CC(C)C)NC(=O)[C@H](CCCNC(=N)N)NC(=O)[C@H](CCC(N)=O)NC(=O)[C@@H](NC(=O)[C@H](C)NC(=O)[C@@H]1CSSC[C@H](NC(=O)CNC(=O)CC[C@H](NC(=O)CCCCCCCCCCCCCCCCCCC(=O)O)C(=O)O)C(=O)N[C@@H](CC(N)=O)C(=O)N[C@@H]([C@@H](C)O)C(=O)N[C@@H](C)C(=O)N[C@@H]([C@@H](C)O)C(=O)N1)[C@@H](C)O)C(=O)N[C@@H](CC(C)C)C(=O)N1CCC[C@H]1C(=O)N1CCC[C@H]1C(=O)N[C@H](C(=O)N[C@@H](CC(N)=O)C(=O)N[C@H](C(=O)NCC(=O)N[C@@H](CO)C(=O)N[C@@H](Cc1c[nH]cn1)C(=O)N[C@H](C(=O)N[C@@H](Cc1ccc(O)cc1)C(N)=O)[C@@H](C)O)C(C)C)[C@@H](C)O [Example 105, N-alpha-[(S)-4-Carboxy-4-(19-carboxynonadecanoylamino)butyryl]-[Gly1,Glu14,His17,His35]-pramlintide] ({C20 diacid-γGlu}-GCNTATCATQRLAEFLHHSSNNFGPILPPTNVGSHTY-NH2; disulfide 2-7 (inferred); C-terminus assumed)	–
97	>45	> 200	> 200	> 200	> 200	> 200	> 200	> 200	> 200	>45	>45	>45	103	> 200	> 200	> 200	> 200	> 200	CC[C@H](C)[C@H](NC(=O)[C@@H]1CCCN1C(=O)CNC(=O)[C@H](Cc1ccccc1)NC(=O)[C@H](CC(N)=O)NC(=O)[C@H](CC(N)=O)NC(=O)[C@H](CO)NC(=O)[C@H](CO)NC(=O)[C@H](Cc1c[nH]cn1)NC(=O)[C@H](Cc1c[nH]cn1)NC(=O)[C@H](CC(C)C)NC(=O)[C@H](Cc1ccccc1)NC(=O)[C@H](CCC(=O)O)NC(=O)[C@H](C)NC(=O)[C@H](CC(C)C)NC(=O)[C@H](CCCNC(=N)N)NC(=O)[C@H](CCC(N)=O)NC(=O)[C@@H](NC(=O)[C@H](C)NC(=O)[C@@H]1CSSC[C@H](NC(=O)[C@H](CCCCN)NC(=O)CC[C@H](NC(=O)CCCCCCCCCCCCCCCCCCC(=O)O)C(=O)O)C(=O)N[C@@H](CC(N)=O)C(=O)N[C@@H]([C@@H](C)O)C(=O)N[C@@H](C)C(=O)N[C@@H]([C@@H](C)O)C(=O)N1)[C@@H](C)O)C(=O)N[C@@H](CC(C)C)C(=O)N1CCC[C@H]1C(=O)N1CCC[C@H]1C(=O)N[C@H](C(=O)N[C@@H](CC(N)=O)C(=O)N[C@H](C(=O)NCC(=O)N[C@@H](CO)C(=O)N[C@@H](CCC(N)=O)C(=O)N[C@H](C(=O)N1CCC[C@H]1C(N)=O)[C@@H](C)O)C(C)C)[C@@H](C)O [Example 135, N-alpha-[(S)-4-Carboxy-4-(19-carboxynonadecanoylamino)butyryl]-[Glu14,His17,Gln35,Pro37]-pramlintide] ({C20 diacid-γGlu}-KCNTATCATQRLAEFLHHSSNNFGPILPPTNVGSQTP-NH2; disulfide 2-7 (inferred))	–
